Assay results from patent publication US20260224584A1 (priority 2023, published 2026).
Structures can show the parent of a compound that is named as a salt.

These compounds were tested on Human WB (90%) CD69 (assay: Human WB (90%) CD69). Settings: read-out: Human WB (90%) CD69 IC50 (nM); human whole blood (90%), CD69 readout.
Format: cell-based

| Compound | IC50 [nM] |
| --- | --- |
| Cc1nc2c(N3CCC(CNC4CCOCC4)CC3)cc(-c3ccc(N4CCN(C(C)C)CC4)cc3)cc2n1C [Example 61, N-((1-(6-(4-(4-isopropylpiperazin-1-yl)phenyl)-1,2-dimethyl-1H-benzo[d]imidazol-4-yl)piperidin-4-yl)methyl)tetrahydro-2H-pyran-4-amine] | 156 |
| CC(C)N1CCN(c2ccc(-c3cc(NC4CCN(C5COC5)CC4)c4nc(-c5ccc(S(C)(=O)=O)cc5)n(C)c4c3)cc2)CC1 [Example 62, 6-(4-(4-isopropylpiperazin-1-yl)phenyl)-1-methyl-2-(4-(methylsulfonyl)phenyl)-N-(1-(oxetan-3-yl)piperidin-4-yl)-1H-benzo[d]imidazol-4-amine, 2 TFA] | 111 |
| CC(C)N1CCN(c2ccc(-c3cc(NCCN4CCOCC4)c4nc(-c5ccc(S(C)(=O)=O)cc5)n(C)c4c3)cc2)CC1 [Example 63, 6-(4-(4-isopropylpiperazin-1-yl)phenyl)-1-methyl-2-(4-(methylsulfonyl)phenyl)-N-(2-morpholinoethyl)-1H-benzo[d]imidazol-4-amine] | 121 |
